The values that follow come from article PMC4583475, “Receptor Polymorphism and Genomic Structure Interact to Shape Bitter Taste Perception” (PLoS Genetics, 2015).

Format in all cases: cell-based, human
Experiment [1] has as its system TAS2R31-H4. Description: Calcium imaging in HEK 293T Gα16gust44 cells transfected with TAS2R31-H4. The source says: (§1) Allelic responses to agonists were quantified using in vitro heterologous expression assays designed in previous studies of TAS2R receptor function, which successfully mimic responses in vivo with respect to both magnitude and concentration range [17, 23, 25, 26, 46]. DNA fragments containing TAS2R coding sequences were first amplified from genomic DNA by PCR using a proofreading polymerase (PfuUltra II Fusion HotStart DNA Polymerase; Agilent Technologies, Santa Clara, CA, USA) and cloned into a plasmid vector according to the manufacturer’s protocol (Zero Blunt TOPO PCR Cloning Kit; Life Technologies). […]
(§2) Functional assays were carried out in HEK 293T cells stably expressing the G protein chimera Gα16gust44 and transiently transfected with TAS2R alleles subcloned into the expression vector [78]. Calcium imaging was performed using an automated fluorometric imaging plate reader by exposing transfected cells to test compounds dissolved in assay buffer or to assay buffer alone (FLIPR Tetra; Molecular Devices, LLC, Sunnyvale, CA, USA). Changes in cytosolic calcium levels were monitored by measuring fluorescence intensity of a calcium-sensitive dye previously added (Fluo-4 AM; Life Technologies). […]
(§3) Prior to final analysis, fluorescence data from functional assays, expressed in relative fluorescence units (RFU), underwent three corrections. […]

Experiment [2] has as its system TAS2R31-H3. Description: Calcium imaging in HEK 293T Gα16gust44 cells transfected with TAS2R31-H3.
Text: as §1, §2, §3

The subject of experiment [3] is TAS2R31-H1. Description: Calcium imaging in HEK 293T Gα16gust44 cells transfected with TAS2R31-H1.
Text: as §1, §2, §3

Experiment [4] has as its system TAS2R31-H2. The experiment is described as follows: Calcium imaging in HEK 293T Gα16gust44 cells transfected with TAS2R31-H2.
Text: as §1, §2, §3

For `C=C[C@H]1C[N@@]2CC[C@H]1C[C@H]2[C@H](O)c1ccnc2ccc(OC)cc12` [quinine], the “receptor variant response” value is on record as “intermediates” in experiment [1], “insensitive” in experiment [2], “intermediates” in experiment [3] and “sensitive” in experiment [4].
